According to PubChem BioAssay AID1963862 (Molecular Pharmacology Branch, DTP, NCI, 2024):
pIC50: −log10 of the molar value.

Tested on: KRAS patient-derived spheroids with HUVEC/MSC, viability
Assay: Anticancer human tumor 941728-121-R-J1-PDC patient-derived lung adenocarcinoma cell line growth inhibition [KRAS2]
Settings: for pIC50: curve of first compound; for viability, T/C: stronger effect = lower value
Outline: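 KRAS-mutant tumor cells were grown as spheroids with HUVEC endothelial cells and human MSCs as stroma. Targeted agents were tested alone and with KRAS pathway inhibitors. Doses started at or near clinical Cmax, or 10 microM, descending half-log.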

[1] = second compound 0.1 µM, first compound 0.0316 µM
[2] = second compound 0.1 µM, first compound 0.1 µM
[3] = second compound 0.316 µM, first compound 0.0316 µM
[4] = second compound 0.316 µM, first compound 0.1 µM
[5] = second compound 1 µM, first compound 0.0316 µM
[6] = second compound 1 µM, first compound 0.1 µM
[7] = second compound 3.16 µM, first compound 0.0316 µM
[8] = second compound 3.16 µM, first compound 0.1 µM
[9] = second compound 10 µM, first compound 0.0316 µM
[10] = second compound 10 µM, first compound 0.1 µM
[11] = second compound 0.1 µM, first compound 0.316 µM
[12] = second compound 0.1 µM, first compound 1 µM
[13] = second compound 0.1 µM, first compound 3.16 µM
[14] = second compound 0.1 µM, first compound 10 µM
[15] = second compound 0.316 µM, first compound 0.316 µM
[16] = second compound 0.316 µM, first compound 1 µM
[17] = second compound 0.316 µM, first compound 3.16 µM
[18] = second compound 0.316 µM, first compound 10 µM
[19] = second compound 1 µM, first compound 0.316 µM
[20] = second compound 1 µM, first compound 1 µM
[21] = second compound 1 µM, first compound 3.16 µM
[22] = second compound 1 µM, first compound 10 µM
[23] = second compound 3.16 µM, first compound 0.316 µM
[24] = second compound 3.16 µM, first compound 1 µM
[25] = second compound 3.16 µM, first compound 3.16 µM
[26] = second compound 3.16 µM, first compound 10 µM
[27] = second compound 10 µM, first compound 0.316 µM
[28] = second compound 10 µM, first compound 1 µM
[29] = second compound 10 µM, first compound 3.16 µM
[30] = second compound 10 µM, first compound 10 µM
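Also: spheroids exposed to agents for seven days before readout.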

SMILES	pIC50 (second compound 0.1 µM)	pIC50 (second compound 0.316 µM)	pIC50 (second compound 1 µM)	pIC50 (second compound 3.16 µM)	pIC50 (second compound 10 µM)	viability, T/C [1] [%]	viability, T/C [2] [%]	viability, T/C [3] [%]	viability, T/C [4] [%]	viability, T/C [5] [%]	viability, T/C [6] [%]	viability, T/C [7] [%]	viability, T/C [8] [%]	viability, T/C [9] [%]	viability, T/C [10] [%]	viability, T/C [11] [%]	viability, T/C [12] [%]	viability, T/C [13] [%]	viability, T/C [14] [%]	viability, T/C [15] [%]	other results
CN(C)C/C=C/C(=O)Nc1cc2c(Nc3ccc(F)c(Cl)c3)ncnc2cc1O[C@H]1CCOC1 + COc1cc2nc(C)nc(NC(C)c3cc(N)cc(C(F)(F)F)c3)c2cc1OC1CCOC1	9.05	> 9.50	> 9.50	> 9.50	> 9.50	43.4	49.3	31.1	36.4	33.3	34.4	14.8	15.8	14.7	16.4	–	–	–	–	–	viability, T/C (second compound 0.1 µM, first compound 0.000316 µM): 60.5%; viability, T/C (second compound 0.1 µM, first compound 0.001 µM): 50.3%; viability, T/C (second compound 0.1 µM, first compound 0.00316 µM): 42.9%; viability, T/C (second compound 0.1 µM, first compound 0.01 µM): 44.4%; viability, T/C (second compound 0.316 µM, first compound 0.000316 µM): 37.2%; viability, T/C (second compound 0.316 µM, first compound 0.001 µM): 32.5%; viability, T/C (second compound 0.316 µM, first compound 0.00316 µM): 32.5%; viability, T/C (second compound 0.316 µM, first compound 0.01 µM): 30.5%; viability, T/C (second compound 1 µM, first compound 0.000316 µM): 40.6%; viability, T/C (second compound 1 µM, first compound 0.001 µM): 34.3%; viability, T/C (second compound 1 µM, first compound 0.00316 µM): 28.9%; viability, T/C (second compound 1 µM, first compound 0.01 µM): 34.3%; viability, T/C (second compound 3.16 µM, first compound 0.000316 µM): 20.1%; viability, T/C (second compound 3.16 µM, first compound 0.001 µM): 20.4%; viability, T/C (second compound 3.16 µM, first compound 0.00316 µM): 18.3%; viability, T/C (second compound 3.16 µM, first compound 0.01 µM): 15.4%; viability, T/C (second compound 10 µM, first compound 0.000316 µM): 19.4%; viability, T/C (second compound 10 µM, first compound 0.001 µM): 15.2%; viability, T/C (second compound 10 µM, first compound 0.00316 µM): 16%; viability, T/C (second compound 10 µM, first compound 0.01 µM): 14.6%
COC(=O)c1ccc2c(C(=Nc3ccc(N(C)C(=O)CN4CCN(C)CC4)cc3)c3ccccc3)c(O)[nH]c2c1 + COc1cc2nc(C)nc(NC(C)c3cc(N)cc(C(F)(F)F)c3)c2cc1OC1CCOC1	5.00	> 7.50	> 7.50	> 7.50	> 7.50	108	45.3	45.5	43.4	42.4	40.9	43.5	36.7	26.2	21.7	46.4	70.2	46.2	48.5	40.5	viability, T/C [16]: 49.7%; viability, T/C [17]: 42.7%; viability, T/C [18]: 42.9%; viability, T/C [19]: 37%; viability, T/C [20]: 41.6%; viability, T/C [21]: 35.1%; viability, T/C [22]: 42.2%; viability, T/C [23]: 41.7%; viability, T/C [24]: 42.6%; viability, T/C [25]: 22.6%; viability, T/C [26]: 0.49%; viability, T/C [27]: 21.1%; viability, T/C [28]: 16.9%; viability, T/C [29]: 0.62%; viability, T/C [30]: 1.04%
O=C(c1cc(Cc2n[nH]c(=O)c3ccccc23)ccc1F)N1CCN(C(=O)C2CC2)CC1 + COc1cc2nc(C)nc(NC(C)c3cc(N)cc(C(F)(F)F)c3)c2cc1OC1CCOC1	< 5.00	< 5.00	< 5.00	> 7.50	7.33	60	105	54.1	57.4	103	114	47.7	50.5	60.5	29.5	59.7	93.4	120	79.2	55.9	viability, T/C [16]: 56.9%; viability, T/C [17]: 64.4%; viability, T/C [18]: 66.2%; viability, T/C [19]: 126%; viability, T/C [20]: 124%; viability, T/C [21]: 103%; viability, T/C [22]: 100%; viability, T/C [23]: 49%; viability, T/C [24]: 59.8%; viability, T/C [25]: 56.9%; viability, T/C [26]: 54.9%; viability, T/C [27]: 26.1%; viability, T/C [28]: 33.6%; viability, T/C [29]: 20.9%; viability, T/C [30]: 27.6%
